Measured values: the NIST ThermoML archive (doi:10.1021/je400803f)
± gives the expanded uncertainty stated by the source.

Conditions: 293.15 K; 101.33 kPa; Liquid; Vibrating tube method

| mass density | Compound |
| --- | --- |
| 948.72 ± 0.23 kg/m3 | CN(C)C=O [dimethylformamide] |
| 1003.35 ± 0.23 kg/m3 | CNC=O [N-methylformamide] |
| 951.59 ± 0.07 kg/m3 | CCNC=O [N-ethylformamide] |
| 940.92 ± 0.23 kg/m3 | CC(=O)N(C)C [N,N-dimethylethanamide] |
| 879.05 ± 0.23 kg/m3 | CCCCN(C=O)CCCC [N,N-dibutylformamide] |
| 1588.56 ± 0.76 kg/m3 | CCCC[N+]1(C)CCCC1.FC(F)(F)C(F)(F)[P-](F)(F)(F)(C(F)(F)C(F)(F)F)C(F)(F)C(F)(F)F |

Same assay, conditions: 298.15 K; 101.33 kPa; Liquid; Vibrating tube method

| mass density | Compound |
| --- | --- |
| 943.86 ± 0.23 kg/m3 | CN(C)C=O [dimethylformamide] |
| 998.91 ± 0.23 kg/m3 | CNC=O [N-methylformamide] |
| 947.48 ± 0.07 kg/m3 | CCNC=O [N-ethylformamide] |
| 936.3 ± 0.23 kg/m3 | CC(=O)N(C)C [N,N-dimethylethanamide] |
| 875.12 ± 0.23 kg/m3 | CCCCN(C=O)CCCC [N,N-dibutylformamide] |
| 1583.15 ± 0.76 kg/m3 | CCCC[N+]1(C)CCCC1.FC(F)(F)C(F)(F)[P-](F)(F)(F)(C(F)(F)C(F)(F)F)C(F)(F)C(F)(F)F |

Same assay, conditions: 303.15 K; 101.33 kPa; Liquid; Vibrating tube method

| mass density | Compound |
| --- | --- |
| 939 ± 0.23 kg/m3 | CN(C)C=O [dimethylformamide] |
| 994.49 ± 0.23 kg/m3 | CNC=O [N-methylformamide] |
| 943.29 ± 0.07 kg/m3 | CCNC=O [N-ethylformamide] |
| 931.62 ± 0.23 kg/m3 | CC(=O)N(C)C [N,N-dimethylethanamide] |
| 871.17 ± 0.23 kg/m3 | CCCCN(C=O)CCCC [N,N-dibutylformamide] |
| 1577.67 ± 0.75 kg/m3 | CCCC[N+]1(C)CCCC1.FC(F)(F)C(F)(F)[P-](F)(F)(F)(C(F)(F)C(F)(F)F)C(F)(F)C(F)(F)F |

Same assay, conditions: 308.15 K; 101.33 kPa; Liquid; Vibrating tube method

| mass density | Compound |
| --- | --- |
| 934.08 ± 0.23 kg/m3 | CN(C)C=O [dimethylformamide] |
| 990.01 ± 0.23 kg/m3 | CNC=O [N-methylformamide] |
| 939.04 ± 0.07 kg/m3 | CCNC=O [N-ethylformamide] |
| 926.89 ± 0.23 kg/m3 | CC(=O)N(C)C [N,N-dimethylethanamide] |
| 867.15 ± 0.23 kg/m3 | CCCCN(C=O)CCCC [N,N-dibutylformamide] |
| 1572.16 ± 0.75 kg/m3 | CCCC[N+]1(C)CCCC1.FC(F)(F)C(F)(F)[P-](F)(F)(F)(C(F)(F)C(F)(F)F)C(F)(F)C(F)(F)F |

Same assay, conditions: 313.15 K; 101.33 kPa; Liquid; Vibrating tube method

| mass density | Compound |
| --- | --- |
| 929.13 ± 0.23 kg/m3 | CN(C)C=O [dimethylformamide] |
| 985.47 ± 0.23 kg/m3 | CNC=O [N-methylformamide] |
| 934.78 ± 0.07 kg/m3 | CCNC=O [N-ethylformamide] |
| 922.09 ± 0.23 kg/m3 | CC(=O)N(C)C [N,N-dimethylethanamide] |
| 863.11 ± 0.23 kg/m3 | CCCCN(C=O)CCCC [N,N-dibutylformamide] |
| 1566.62 ± 0.74 kg/m3 | CCCC[N+]1(C)CCCC1.FC(F)(F)C(F)(F)[P-](F)(F)(F)(C(F)(F)C(F)(F)F)C(F)(F)C(F)(F)F |

Same assay, conditions: 318.15 K; 101.33 kPa; Liquid; Vibrating tube method

| mass density | Compound |
| --- | --- |
| 924.06 ± 0.23 kg/m3 | CN(C)C=O [dimethylformamide] |
| 980.88 ± 0.23 kg/m3 | CNC=O [N-methylformamide] |
| 930.45 ± 0.07 kg/m3 | CCNC=O [N-ethylformamide] |
| 917.23 ± 0.23 kg/m3 | CC(=O)N(C)C [N,N-dimethylethanamide] |
| 859.01 ± 0.23 kg/m3 | CCCCN(C=O)CCCC [N,N-dibutylformamide] |
| 1561.06 ± 0.74 kg/m3 | CCCC[N+]1(C)CCCC1.FC(F)(F)C(F)(F)[P-](F)(F)(F)(C(F)(F)C(F)(F)F)C(F)(F)C(F)(F)F |

Same assay, conditions: 323.15 K; 101.33 kPa; Liquid; Vibrating tube method

| mass density | Compound |
| --- | --- |
| 918.96 ± 0.23 kg/m3 | CN(C)C=O [dimethylformamide] |
| 976.24 ± 0.23 kg/m3 | CNC=O [N-methylformamide] |
| 926.06 ± 0.08 kg/m3 | CCNC=O [N-ethylformamide] |
| 912.23 ± 0.23 kg/m3 | CC(=O)N(C)C [N,N-dimethylethanamide] |
| 854.82 ± 0.23 kg/m3 | CCCCN(C=O)CCCC [N,N-dibutylformamide] |
| 1555.48 ± 0.73 kg/m3 | CCCC[N+]1(C)CCCC1.FC(F)(F)C(F)(F)[P-](F)(F)(F)(C(F)(F)C(F)(F)F)C(F)(F)C(F)(F)F |
